US6428816B1, “Carotenoid agent for inhibiting the conversion of epithelial cells to tumors” (Cognis Australia Pty., Ltd., priority 1992, dated 2002)
“Also recorded” adds a separate entry of the source.

Tests used:
normal human melanocytes [1] = settings: FIG. 2; 500 mJ/cm^2 UV-B; up to 24 hours after irradiation
Description: (§1) Human neonatal foreskins were placed in 0.25% trypsin at 4° C. overnight. Following this incubation, the tissue was scraped to recover the melanocytes. The melanocytes were cultured in MCDB 151 (Sigma) medium containing 2% fetal calf serum, 0.3% bovine pituitary extract (Clonetics Corp.), 10 nanograms/ml TPA, 2 mM CaCl2, 5 micrograms/ml insulin and 0.1 mM IBMX (Sigma).
(§2) Cells were harvested with 0.25% trypsin and counted on a Coulter Counter (Coulter Instruments). Viability was determined by trypan blue exclusion. DNA synthesis was measured by labelling with (methyl-^3H)-thymidine (2.5 mCi/ml, 20 Ci/mmol, DuPont-New England Nuclear) added to the medium during the last 4 hours of incubation. Melanocytes were harvested using a Ph.D. cell harvester (Cambridge Research Inc.). the amount of radioactivity incorporated was determined by liquid scintillation counting (LS5000TD. Beckman Instruments).
(§3) Normal human melanocytes were seeded into the appropriate vessel (6 well plate, 96 well plate, 75 cm or 175 cm flask) and allowed to grow to 50-60% confluency. […] The 0.05 hour time indicates cells were harvested within 3 minutes following UV-B exposure.

NF Kappa B = assay: Gel mobility shift assay of NF Kappa B DNA binding activity in nuclear extracts of UV-B irradiated melanocytes; assay type: cell-based, human
Description: In summary, gel mobility shift assay using a NF Kappa B consensus sequence was performed to determine DNA binding activity of nuclear extracts from four normal Caucasian melanocyte (NCM) lines.
Cells were grown to approximately 50-60% confluency and treated as described in the experimental protocol described in section (i) below. The cells were allowed to swell in hypotonic buffer (10 mM HEPES, pH 7.8, 0.1 mM EDTA, 10 mM KCC, 1 mM DTT. PMSF for 15 minutes on ice). Cytosolic protein fraction was obtained after the addition of Nonider P-40 to a final concentration of 0.5% and separation from the nuclei by centrifugation (500×g. for 5 minutes). Nuclear proteins were extracted from the remaining pellet by dialysis with hypertonic buffer ([…], pH 7.9, 350 mM NaCl, 1 Mm DTT, 1 mM PMSF) for 2 hours at 10° C. Isolated nuclear protein was frozen and stored at −80° C. Quantitation was calculated from optical density readings of 230, 260 and 320 wavelengths.
Five microgram samples of each extract were incubated with 10,000 cpm of a ^32p-labelled consensus oligonucleotide of NF Kappa B. Following a 1 hour incubation, samples were electrophoresed in a low ionic strength polyacrylamide gel. Quantitation of protein; DNA complexes was accomplished by densitometry.
as §3

normal human melanocytes [2] = assay: DNA synthesis by tritiated thymidine incorporation in normal human melanocytes; assay type: cell-based; settings: for effect on DNA synthesis (percent tritiated thymidine incorporation): no UV
Description: FIGS. 1 and 5 refer to “Percent Tritiated Thymidine Incorporation” which is a measure of DNA synthesis activity.
as §1, §2, §3

c-jun = assay: Northern analysis of c-jun RNA in melanocytes exposed to UV-B; assay type: cell-based, human; settings: for decrease of C-jun induction versus irradiated melanocytes in complete medium (TPA and IBMX) / RNA levels in the absence of the factor: FIG. 9; for decrease of C-jun induction versus irradiated melanocytes in complete medium (TPA and IBMX): medium without the factor (TPA 10 ng/ml or IBMX 0.1 mM) 24 hours, 100 mJ/cm^2 UVB, 1 hour after irradiation; for RNA levels in the absence of the factor: melanocytes not exposed to UVB
Description: Ultra-violet (“UV”) radiation can cause severe damage to cells, including genetic mutations, the promotion of cancer, and other adverse conditions. The potentially harmful effects for UV radiation for humans are mainly due to the UVB spectrum (ie, radiation having a wavelength of between 290 and 320 nanometers) (See: […], Soler N A Staff J S and Mihm M C Jr: “The human sunburn reaction: histologic and biochemical studies” J, Am. […] Another form of UV radiation is called “UVC”. UVC radiation in sunlight typically has a wavelength of the order of 254 nanometers. It is not as biologically relevant as UVB radiation however, because th UVC radiation in sunlight is strongly absorbed by the earth's ozone layer. accordingly, in the present study, we investigated the effects of UVB irradiation by melanocytes, and the changes to those effects by treating those cells with carotenoids. UVC wavelengths were blocked out of the experiments as the cells were incubated in plastic vessels. […] Wavelengths shorter than 280 nm wee cut off by keeping lids on tissue culture dishes. […] Total RNA was isolated by detergent lysis followed by phenol-chloroform extraction and ethanol precipitation. 15 micrograms of RNA was size-fractionated on denaturing formaldehyde/agarose gels and transferred to nylon filters by capillary blotting. […] After hybridization, filters were washed to a stringency of 0.5-0.1X SSC at 60° C. and autoradiographed at -80° C. for three to ten days using Fuji film. Autoradiographs are quantitated by densitometry using the GS-365 software (Hoefer Scientific). […] The c-fos probe was a 1.8 kb Xbo 1/Eco R I fragment from the plasmid BK 28 (Verma, 1988). The 185 probe was isolated by an EcoRI digest and isolation of the 5.6 kb fragment from the plasmid pB (Gonzalez, 1988). […] The 0.05 hour time indicates cells were harvested within 3 minutes following UV-B exposure. A “control” group received precisely the same treatment as the “treated” group, with the exception of being treated with beta-carotene.

c-fos = assay: Northern analysis of c-fos RNA in melanocytes exposed to UV-B; assay type: cell-based, human
Description: as §3

[3] = FIG. 6, 1 ug/ml for 24 hours, then 100 or 500 mJ/cm^2 UV-B, four melanocyte lines

Compound	persistence of the viability increase over the time course (normal human melanocytes [1])	effect on NF kappa B DNA binding activity (NF Kappa B; FIG. 7, 100 mJ/cm^2 UV-B)	inhibition at 1 µg/mL (NF Kappa B; Homo sapiens, Melanocyte, light or radiation study, FIG. 8, 500 mJ/cm^2 UV-B, first hour following irradiation, 1.0 ug/ml pre-treatment 24 hours) [%]	protective effect of pre-treatment (NF Kappa B complex) (NF Kappa B; one hour following UVB irradiation at 500 mJ/cm^2, p value less than 0.05, Student's t-test)	effect on DNA synthesis (percent tritiated thymidine incorporation) (normal human melanocytes [2]; FIG. 1, highest beta-carotene dose, 24 hours incubation)	effect on DNA synthesis (percent tritiated thymidine incorporation) (normal human melanocytes [2]; FIG. 1, lower beta-carotene doses, 24 hours incubation)	effect on DNA synthesis at the chosen pre-treatment dose (normal human melanocytes [2]; FIG. 1, pre-treatment dose, 1.0 microgram/ml or 10 μg/ml, 24 hours incubation)	effect of pre-treatment on DNA synthesis after UV-B (normal human melanocytes [2]; FIG. 4, 4 hours after irradiation, 400 mJ/cm^2 of UV-B)	effect of pre-treatment on DNA synthesis (tritiated thymidine incorporation) after UV-B (normal human melanocytes [2]; FIG. 4, 24 hours following 400 mJ/cm^2 of UV-B)	effect on induction of c-jun by UV-B (c-jun; FIG. 3, 24 hours following 500 mJ/cm^2 UV-B irradiation)	increase of c-jun expression by beta-carotene (c-jun; FIG. 3, four hours following 500 mJ/cm^2 UV-B irradiation) [fold]	effect on UVB-induced C-jun expression (c-jun; [3])	effect on induction of c-fos by UV-B (c-fos; FIG. 3, 500 mJ/cm^2 UV-B, beta-carotene pre-treatment)	effect on UVB-induced C-fos expression (c-fos; [3])	decrease of C-jun induction versus irradiated melanocytes in complete medium (TPA and IBMX) (c-jun)	RNA levels in the absence of the factor (c-jun)
CC1=C(/C=C/C(C)=C/C=C/C(C)=C/C=C/C=C(C)/C=C/C=C(C)/C=C/C2=C(C)CCCC2(C)C)C(C)(C)CCC1 [beta-carotene]	remained for the duration of the time course	slightly decreased; also recorded: moderate effect	> 50	statistically significant protective effect	largely inhibited	little or no effect	minimal effect	not seen	increased	completely blocked	11.1	only a slight effect	essentially blocked	did not alter		
CC(C)Cn1c(=O)n(C)c(=O)c2[nH]cnc21 [IBMX, 3-Isobutyl 1-Methyl Xanthine]															approximately 50%	unaffected
CCCCCCCCCCCCCC(=O)O[C@@H]1[C@@H](C)[C@@]2(O)[C@@H](C=C(CO)C[C@]3(O)C(=O)C(C)=C[C@@H]23)[C@H]2C(C)(C)[C@]12OC(C)=O [TPA, O-Tetradecanoylphorbol 13-acetate]															approximately 50%	unaffected
